Measurements taken from US10457709B2, “Antimicrobial peptides, their variants and uses” (priority 2015, dated 2019).
Read-outs that look alike come from different tables or passages of the source. Square brackets hold non-standard residues; d marks the D form. Peptide text beside a SMILES is read from it.

Legend:
[1] = system: Acinetobacter baumannii clinical strains; assay type: cell-based; design: Minimum inhibitory concentration: unit: μg/ml; conditions: microdilution, Muller Hinton broth-cation adjusted, 0.02% BSA, 0.2% acetic acid
How it was run: (§1)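 MIC = lowest concentration without visual growth after 20–24 h at 37° C. Microbroth dilution, 5.0×10^5 cfu/ml, 0.125–128 μg/ml range; MH broth for bacteria, potato dextrose broth for yeasts.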

[2] = system: Enterobacter cloacae clinical strains; assay type: cell-based; design: Minimum inhibitory concentration: unit: μg/ml; conditions: microdilution, Muller Hinton broth-cation adjusted, 0.02% BSA, 0.2% acetic acid
How it was run: as §1

[3] = system: Proteus mirabilis clinical strains; assay type: cell-based; design: Minimum inhibitory concentration: unit: μg/ml; conditions: for Minimum inhibitory concentration: microdilution, Muller Hinton broth-cation adjusted, 0.02% BSA, 0.2% acetic acid
How it was run: as §1

[4] = system: Serratia marcescens clinical strains; assay type: cell-based; design: Minimum inhibitory concentration: unit: μg/ml; conditions: for Minimum inhibitory concentration: microdilution, Muller Hinton broth-cation adjusted, 0.02% BSA, 0.2% acetic acid
How it was run: as §1

[5] = system: Staphylococcus aureus clinical strains; assay type: cell-based; design: Minimum inhibitory concentration: unit: μg/ml; conditions: microdilution, Muller Hinton broth-cation adjusted, 0.02% BSA, 0.2% acetic acid
How it was run: as §1

[6] = system: Streptococcus pneumoniae clinical strains; assay type: cell-based; design: Minimum inhibitory concentration: unit: μg/ml; conditions: microdilution, Muller Hinton broth-cation adjusted, 0.02% BSA, 0.2% acetic acid
How it was run: as §1

[7] = system: Candida albicans clinical strains; experiment: MIC, clinical yeast strains; assay type: cell-based; design: unit: μg/ml
How it was run: as §1

[8] = system: C. glabrata clinical strains; experiment: MIC, clinical yeast strains; assay type: cell-based, Candida glabrata; design: unit: µg/ml
How it was run: as §1

[9] = system: C. parapsilosis clinical strains; experiment: MIC, clinical yeast strains; assay type: cell-based, Candida parapsilosis; design: unit: µg/ml
How it was run: as §1

[10] = system: C. quillermondiae clinical strains; experiment: MIC, clinical yeast strains; assay type: cell-based, Candida quillermondiae; design: unit: μg/ml; conditions: C. quillermondiae clinical yeast strain 1
How it was run: as §1

[11] = system: Escherichia coli clinical strains; assay type: cell-based; conditions: microdilution, Muller Hinton broth-cation adjusted, 0.02% BSA, 0.2% acetic acid
How it was run: as §1

[12] = system: Klebsiella pneumoniae clinical strains; assay type: cell-based; conditions: microdilution, Muller Hinton broth-cation adjusted, 0.02% BSA, 0.2% acetic acid
How it was run: as §1

[13] = system: Pseudomonas aeruginosa clinical strains; assay type: cell-based; conditions: microdilution, Muller Hinton broth-cation adjusted, 0.02% BSA, 0.2% acetic acid
How it was run: as §1

[14] = system: all the bacteria and yeasts tested; assay type: cell-based
How it was run: as §1

[15] = system: Staphylococcus aureus (ATCC 25923); experiment: microbe, parasite or virus in culture; assay type: cell-based
How it was run: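 Readout: visual growth inhibition, MIC recorded as lowest effective concentration. Peptides spanned 0.125–128 μg/ml against 5.0×10^5 cfu/ml suspensions in MH broth; incubation lasted 20–24 hours at 37° C.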

[16] = system: Acinetobacter johnsonii clinical strains; assay type: cell-based; conditions: Acinetobacter johnsonii clinical strain 1; microdilution, Muller Hinton broth-cation adjusted, 0.02% BSA, 0.2% acetic acid
How it was run: as §1

[17] = Acinetobacter baumannii clinical strain 1
[18] = Acinetobacter baumannii clinical strain 2
[19] = Acinetobacter baumannii clinical strain 3
[20] = Acinetobacter baumannii clinical strain 4
[21] = Acinetobacter baumannii clinical strain 5
[22] = Enterobacter cloacae clinical strain 1
[23] = Enterobacter cloacae clinical strain 2
[24] = Enterobacter cloacae clinical strain 3
[25] = Enterobacter cloacae clinical strain 4
[26] = Enterobacter cloacae clinical strain 5
[27] = Proteus mirabilis clinical strain 1
[28] = Proteus mirabilis clinical strain 2
[29] = Proteus mirabilis clinical strain 3
[30] = Proteus mirabilis clinical strain 4
[31] = Proteus mirabilis clinical strain 5
[32] = Serratia marcescens clinical strain 1
[33] = Serratia marcescens clinical strain 2
[34] = Serratia marcescens clinical strain 3
[35] = Serratia marcescens clinical strain 4
[36] = Serratia marcescens clinical strain 5
[37] = Staphylococcus aureus clinical strain 1
[38] = Staphylococcus aureus clinical strain 2
[39] = Staphylococcus aureus clinical strain 3
[40] = Staphylococcus aureus clinical strain 4
[41] = Staphylococcus aureus clinical strain 5
[42] = Streptococcus pneumoniae clinical strain 1
[43] = Streptococcus pneumoniae clinical strain 2
[44] = Streptococcus pneumoniae clinical strain 3
[45] = Streptococcus pneumoniae clinical strain 4
[46] = Streptococcus pneumoniae clinical strain 5
[47] = Escherichia coli clinical strain 1
[48] = Escherichia coli clinical strain 2
[49] = Escherichia coli clinical strain 3
[50] = Escherichia coli clinical strain 4
[51] = Escherichia coli clinical strain 5
[52] = Klebsiella pneumoniae clinical strain 1
[53] = Klebsiella pneumoniae clinical strain 2
[54] = Klebsiella pneumoniae clinical strain 3
[55] = Klebsiella pneumoniae clinical strain 4
[56] = Klebsiella pneumoniae clinical strain 5
[57] = Pseudomonas aeruginosa clinical strain 1
[58] = Pseudomonas aeruginosa clinical strain 2
[59] = Pseudomonas aeruginosa clinical strain 3
[60] = Pseudomonas aeruginosa clinical strain 4
[61] = Pseudomonas aeruginosa clinical strain 5

Q: How did the Minimum inhibitory concentration [1, 17] turn out when `CC[C@@H](C)[C@@H](NC(=O)[C@@H](Cc1c[nH]c2ccccc12)NC(=O)[C@H](N)CCCCN)C(=O)N[C@@H](C(=O)N[C@H](Cc1c[nH]c2ccccc12)C(=O)N[C@H](CCCNC(=N)N)C(=O)N[C@H](Cc1c[nH]c2ccccc12)C(=O)N[C@H](CCCNC(=N)N)C(=O)N[C@H](Cc1ccccc1)C(=O)N[C@H](CCCCN)C(=O)N[C@H](CCCNC(=N)N)C(=O)O)C(C)C` [Chain201D] (H-[dK][dW][dI][dV][dW][dR][dW][dR][dF][dK][dR]-OH) was run?
A: 4

Q: What about the Minimum inhibitory concentration [1, 18] of the same compound?
A: 4

Q: What about the Minimum inhibitory concentration [1, 19] of the same compound?
A: 4

Q: And the Minimum inhibitory concentration [1, 20]?
A: 4

Q: What about the Minimum inhibitory concentration [1, 21] of the same compound?
A: 4

Q: And the Minimum inhibitory concentration [2, 22]?
A: 1

Q: What about the Minimum inhibitory concentration [2, 23] of the same compound?
A: 2

Q: What about the Minimum inhibitory concentration [2, 24] of the same compound?
A: 2

Q: And the Minimum inhibitory concentration [2, 25]?
A: 2

Q: What about the Minimum inhibitory concentration [2, 26] of the same compound?
A: 1

Q: And the Minimum inhibitory concentration [3, 27]?
A: >128

Q: What about the Minimum inhibitory concentration [3, 28] of the same compound?
A: 32

Q: What about the Minimum inhibitory concentration [3, 29] of the same compound?
A: 64

Q: And the Minimum inhibitory concentration [3, 30]?
A: >128

Q: What about the Minimum inhibitory concentration [3, 31] of the same compound?
A: >128

Q: What about the “MICs against Proteus mirabilis” value ([3]; clinical strains) of the same compound?
A: 64 to 128 µg/mL

Q: And the Minimum inhibitory concentration [4, 32]?
A: 64

Q: What about the Minimum inhibitory concentration [4, 33] of the same compound?
A: 64

Q: And the Minimum inhibitory concentration [4, 34]?
A: 64

Q: What about the Minimum inhibitory concentration [4, 35] of the same compound?
A: 64

Q: What about the Minimum inhibitory concentration [4, 36] of the same compound?
A: 128

Q: What about the “MICs against Serratia marcescens” value ([4]; clinical strains) of the same compound?
A: 64 to 128 µg/mL

Q: And the Minimum inhibitory concentration [5, 37]?
A: 1

Q: And the Minimum inhibitory concentration [5, 38]?
A: 1

Q: And the Minimum inhibitory concentration [5, 39]?
A: 1

Q: And the Minimum inhibitory concentration [5, 40]?
A: 1

Q: What about the Minimum inhibitory concentration [5, 41] of the same compound?
A: 1

Q: What about the Minimum inhibitory concentration [6, 42] of the same compound?
A: 8

Q: And the Minimum inhibitory concentration [6, 43]?
A: 4

Q: What about the Minimum inhibitory concentration [6, 44] of the same compound?
A: 2

Q: What about the Minimum inhibitory concentration [6, 45] of the same compound?
A: 4

Q: What about the Minimum inhibitory concentration [6, 46] of the same compound?
A: 4

Q: What about the Minimum inhibitory concentration ([7]; Candida albicans clinical yeast strain 1) of the same compound?
A: 16

Q: What about the Minimum inhibitory concentration ([7]; Candida albicans clinical yeast strain 2) of the same compound?
A: 8

Q: And the Minimum inhibitory concentration ([7]; Candida albicans clinical yeast strain 3)?
A: 8

Q: And the Minimum inhibitory concentration ([7]; Candida albicans clinical yeast strain 4)?
A: 16

Q: And the Minimum inhibitory concentration ([7]; Candida albicans clinical yeast strain 5)?
A: 8

Q: And the Minimum inhibitory concentration ([8]; C. glabrata clinical yeast strain 1)?
A: 8

Q: What about the Minimum inhibitory concentration ([8]; C. glabrata clinical yeast strain 2) of the same compound?
A: 8

Q: What about the Minimum inhibitory concentration ([8]; C. glabrata clinical yeast strain 3) of the same compound?
A: 8

Q: And the Minimum inhibitory concentration ([8]; C. glabrata clinical yeast strain 4)?
A: 64

Q: What about the Minimum inhibitory concentration ([9]; C. parapsilosis clinical yeast strain 1) of the same compound?
A: 8

Q: What about the Minimum inhibitory concentration ([9]; C. parapsilosis clinical yeast strain 2) of the same compound?
A: 8

Q: What about the Minimum inhibitory concentration ([9]; C. parapsilosis clinical yeast strain 3) of the same compound?
A: 8

Q: And the Minimum inhibitory concentration ([9]; C. parapsilosis clinical yeast strain 4)?
A: 8

Q: And the Minimum inhibitory concentration [10]?
A: 8

Q: What about the Minimum inhibitory concentration [11, 47] of the same compound?
A: 16

Q: And the Minimum inhibitory concentration [11, 48]?
A: 1

Q: What about the Minimum inhibitory concentration [11, 49] of the same compound?
A: 1

Q: What about the Minimum inhibitory concentration [11, 50] of the same compound?
A: 1

Q: What about the Minimum inhibitory concentration [11, 51] of the same compound?
A: 1

Q: What about the Minimum inhibitory concentration [12, 52] of the same compound?
A: 2

Q: And the Minimum inhibitory concentration [12, 53]?
A: 2

Q: What about the Minimum inhibitory concentration [12, 54] of the same compound?
A: 4

Q: What about the Minimum inhibitory concentration [12, 55] of the same compound?
A: 4

Q: And the Minimum inhibitory concentration [12, 56]?
A: 2

Q: What about the Minimum inhibitory concentration [13, 57] of the same compound?
A: 4

Q: And the Minimum inhibitory concentration [13, 58]?
A: 4

Q: And the Minimum inhibitory concentration [13, 59]?
A: 4

Q: What about the Minimum inhibitory concentration [13, 60] of the same compound?
A: 2

Q: What about the Minimum inhibitory concentration [13, 61] of the same compound?
A: 2

Q: And the “MICs against all the bacteria and yeasts tested” value [14]?
A: 0.5 to 32 µg/mL

Q: How did the “Minimum inhibitory concentration, Staphylococcus aureus (ATCC 25923)” value [15] turn out when Gentamicin [reference compound] was run?
A: 0.25 µg/mL

Q: And the Minimum inhibitory concentration [1, 17]?
A: 0.5

Q: And the Minimum inhibitory concentration [1, 18]?
A: 0.25

Q: What about the Minimum inhibitory concentration [1, 19] of the same compound?
A: 0.5

Q: What about the Minimum inhibitory concentration [1, 20] of the same compound?
A: 0.5

Q: What about the Minimum inhibitory concentration [1, 21] of the same compound?
A: 0.25

Q: And the Minimum inhibitory concentration [2, 22]?
A: 0.25

Q: What about the Minimum inhibitory concentration [2, 23] of the same compound?
A: 0.25

Q: What about the Minimum inhibitory concentration [2, 24] of the same compound?
A: 0.25

Q: What about the Minimum inhibitory concentration [2, 25] of the same compound?
A: 0.25

Q: What about the Minimum inhibitory concentration [2, 26] of the same compound?
A: 0.25

Q: What about the Minimum inhibitory concentration [3, 27] of the same compound?
A: 2

Q: And the Minimum inhibitory concentration [3, 28]?
A: 2

Q: And the Minimum inhibitory concentration [3, 29]?
A: >128

Q: What about the Minimum inhibitory concentration [3, 30] of the same compound?
A: 8

Q: What about the Minimum inhibitory concentration [3, 31] of the same compound?
A: >128

Q: And the Minimum inhibitory concentration [4, 32]?
A: 1

Q: What about the Minimum inhibitory concentration [4, 33] of the same compound?
A: 2

Q: What about the Minimum inhibitory concentration [4, 34] of the same compound?
A: 1

Q: And the Minimum inhibitory concentration [4, 35]?
A: 1

Q: And the Minimum inhibitory concentration [4, 36]?
A: 1

Q: What about the Minimum inhibitory concentration [5, 37] of the same compound?
A: 0.5

Q: And the Minimum inhibitory concentration [5, 38]?
A: 0.5

Q: What about the Minimum inhibitory concentration [5, 39] of the same compound?
A: 0.5

Q: And the Minimum inhibitory concentration [5, 40]?
A: 0.5

Q: What about the Minimum inhibitory concentration [5, 41] of the same compound?
A: 0.5

Q: And the Minimum inhibitory concentration [6, 42]?
A: 2

Q: What about the Minimum inhibitory concentration [6, 43] of the same compound?
A: 2

Q: And the Minimum inhibitory concentration [6, 44]?
A: 2

Q: What about the Minimum inhibitory concentration [6, 45] of the same compound?
A: 2

Q: What about the Minimum inhibitory concentration [6, 46] of the same compound?
A: 1

Q: What about the Minimum inhibitory concentration [16] of the same compound?
A: 0.25

Q: And the Minimum inhibitory concentration [11, 47]?
A: 0.5

Q: And the Minimum inhibitory concentration [11, 48]?
A: 0.5

Q: What about the Minimum inhibitory concentration [11, 49] of the same compound?
A: 1

Q: What about the Minimum inhibitory concentration [11, 50] of the same compound?
A: 1

Q: And the Minimum inhibitory concentration [11, 51]?
A: 1

Q: And the Minimum inhibitory concentration [12, 52]?
A: 2

Q: What about the Minimum inhibitory concentration [12, 53] of the same compound?
A: 0.25

Q: What about the Minimum inhibitory concentration [12, 54] of the same compound?
A: 2

Q: And the Minimum inhibitory concentration [12, 55]?
A: 2

Q: And the Minimum inhibitory concentration [12, 56]?
A: 4

Q: And the Minimum inhibitory concentration [13, 57]?
A: 1

Q: And the Minimum inhibitory concentration [13, 58]?
A: 0.5

Q: What about the Minimum inhibitory concentration [13, 59] of the same compound?
A: 0.5

Q: What about the Minimum inhibitory concentration [13, 60] of the same compound?
A: 0.5

Q: What about the Minimum inhibitory concentration [13, 61] of the same compound?
A: 0.25
